Source: patent US10189810B2, “Pyrazolyl-substituted pyridone compounds as serine protease inhibitors” (VERSEON CORPORATION, priority 2014, dated 2019)

Columns and labels:
Human thrombin = target: T1, Human thrombin (Homo sapiens, UniProt P00734); assay: thrombin protease inhibition assay (chromogenic substrate S-2238); type: biochemical; conditions: 3 nM thrombin, 125 μM S-2238, 10 min pre-incubation, RT, read at 405 nm
T1 construct: Thrombin (fIIa, the active form of prothrombin) is another serine protease; purchased Haematologic Technologies Inc
Experimental: The thrombin activity reported herein (e.g., Table A) was obtained as follows. […] Thrombin was assayed in buffer containing 0.05 M Tris (pH 7.4), 0.015 M NaCl and 0.01% PEG-8000. The final concentration of enzyme used was 3 nM thrombin. […] All assays were performed in 96-well microtiter plates at room temperature (RT). […] Inhibitor IC50 values were determined by adding test compound as ten point, three-fold serial dilutions in buffer solution, as known in the art. The plate was read at 10 minutes after substrate addition. The IC50 was calculated by plotting the percent (%) inhibition against compound concentration and fitting the data to a constrained four parameter sigmoidal curve, as known in the art.

Human KLKB1 protein = target: T2, Human KLKB1 protein (Homo sapiens, UniProt P03952); assay: KLKB1 kallikrein protease inhibition assay (chromogenic substrate S-2302); type: biochemical; conditions: 3 nM KLKB1, 250 μM S-2302, 10 min pre-incubation, RT, read at 405 nm
T2 construct: purchased Enzyme Research Labs
T2 sequence (P03952 391-638 limits assumed): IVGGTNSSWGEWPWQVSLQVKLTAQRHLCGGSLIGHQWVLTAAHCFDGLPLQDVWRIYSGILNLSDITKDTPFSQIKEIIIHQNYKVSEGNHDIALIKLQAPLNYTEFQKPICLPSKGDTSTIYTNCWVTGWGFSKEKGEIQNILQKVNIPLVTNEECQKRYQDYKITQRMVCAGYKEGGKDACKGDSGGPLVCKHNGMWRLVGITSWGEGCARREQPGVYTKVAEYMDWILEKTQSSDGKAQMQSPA
T2 sequence (P03952 20-390 partner limits assumed): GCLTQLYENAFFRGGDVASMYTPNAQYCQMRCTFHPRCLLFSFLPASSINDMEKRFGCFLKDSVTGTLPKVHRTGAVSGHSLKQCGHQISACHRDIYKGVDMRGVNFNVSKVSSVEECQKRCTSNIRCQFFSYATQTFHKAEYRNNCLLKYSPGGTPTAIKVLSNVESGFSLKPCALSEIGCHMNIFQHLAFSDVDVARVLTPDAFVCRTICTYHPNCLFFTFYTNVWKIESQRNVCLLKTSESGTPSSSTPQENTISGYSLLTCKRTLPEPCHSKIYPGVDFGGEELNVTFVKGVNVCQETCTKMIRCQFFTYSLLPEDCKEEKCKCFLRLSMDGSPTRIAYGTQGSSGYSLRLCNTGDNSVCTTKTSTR
Experimental: The KLKB1 kallikrein activity reported herein (e.g., Table A) was obtained as follows. Human KLKB1 protein was obtained from Enzyme Research Labs. The chromogenic substrate S-2302 was obtained from DiaPharma. KLKB1 was assayed in buffer containing 0.05 M Tris (pH 7.4), 0.01 M NaCl and 0.2% w/v PEG-8000. The final concentration of enzyme used was 3 nM KLKB1. The final concentration of substrate used was 250 μM S-2302 for KLKB1. All assays were performed in 96-well microtiter plates at room temperature (RT). […] The plate was read at 10 minutes after substrate addition. The IC50 was calculated by plotting the percent (%) inhibition against compound concentration and fitting the data to a constrained four parameter sigmoidal curve, as known in the art.

With `O=C(c1ccoc1)n1nc(-c2ccc(Br)c(=O)[nH]2)cc1NCc1ccc(Cl)s1` [Entry 7, 3-bromo-6-(5-[(5-chlorothiophen-2-yl)methyl]amino-1-(furan-3-carbonyl)-1H-pyrazol-3-yl)-1,2-dihydropyridin-2-one] the IC50 (Human thrombin) was 100 to 1000 nM and the IC50 (Human KLKB1 protein) was 10000 to 100000 nM.
In the case of `CC(C)(C)C(=O)n1nc(-c2cc[nH]c(=O)c2)cc1NCc1ccc(Cl)s1` [Entry 8, 4-(5-[(5-chlorothiophen-2-yl)methyl]amino-1-(2,2-dimethylpropanoyl)-1H-pyrazol-3-yl)-1,2-dihydropyridin-2-one], the IC50 (Human thrombin) is reported as < 100 nM and the IC50 (Human KLKB1 protein) is reported as 1000 to 10000 nM.
In the case of `COCCn1ccc(-c2cc(NCc3ccc(Cl)s3)n(C(=O)C(C)(C)C)n2)cc1=O` [Entry 9, 4-(5-[(5-chlorothiophen-2-yl)methyl]amino-1-(2,2-dimethylpropanoyl)-1H-pyrazol-3-yl)-1-(2-methoxyethyl)-1,2-dihydropyridin-2-one], the IC50 (Human thrombin) is reported as < 100 nM and the IC50 (Human KLKB1 protein) is reported as 1000 to 10000 nM.
For `CC(C)(C)C(=O)n1nc(-c2ccn(Cc3ccccn3)c(=O)c2)cc1NCc1ccc(Cl)s1` [Entry 10, 4-(5-[(5-chlorothiophen-2-yl)methyl]amino-1-(2,2-dimethylpropanoyl)-1H-pyrazol-3-yl)-1-(pyridin-2-ylmethyl)-1,2-dihydropyridin-2-one], the IC50 (Human thrombin) was < 100 nM and the IC50 (Human KLKB1 protein) was 1000 to 10000 nM.
`CC(C)(C)C(=O)n1nc(-c2ccn(Cc3cccnc3)c(=O)c2)cc1NCc1ccc(Cl)s1` [Entry 11, 4-(5-[(5-chlorothiophen-2-yl)methyl]amino-1-(2,2-dimethylpropanoyl)-1H-pyrazol-3-yl)-1-(pyridin-3-ylmethyl)-1,2-dihydropyridin-2-one] was tested, and the IC50 (Human thrombin) was < 100 nM and the IC50 (Human KLKB1 protein) was 100 to 1000 nM.
For `CC(C)(C)C(=O)n1nc(-c2cc(N3CCOCC3)[nH]c(=O)c2)cc1NCc1ccc(Cl)s1` [Entry 13, 4-(5-[(5-chlorothiophen-2-yl)methyl]amino-1-(2,2-dimethylpropanoyl)-1H-pyrazol-3-yl)-6-(morpholin-4-yl)-1,2-dihydropyridin-2-one], the IC50 (Human thrombin) was 1000 to 10000 nM and the IC50 (Human KLKB1 protein) was > 100000 nM.
For `O=C(c1ccco1)n1nc(-c2cc(-c3cccnc3)[nH]c(=O)c2)cc1NCc1ccc(Cl)s1` [Entry 15, 4-(5-[(5-chlorothiophen-2-yl)methyl]amino-1-(furan-2-carbonyl)-1H-pyrazol-3-yl)-6-(pyridin-3-yl)-1,2-dihydropyridin-2-one], the IC50 (Human thrombin) was 1000 to 10000 nM and the IC50 (Human KLKB1 protein) was > 100000 nM.
In the case of `O=C(c1ccoc1)n1nc(-c2cc[nH]c(=O)c2)cc1NCc1ccc(Cl)s1` [Entry 16, 4-(5-[(5-chlorothiophen-2-yl)methyl]amino-1-(furan-3-carbonyl)-1H-pyrazol-3-yl)-1,2-dihydropyridin-2-one], the IC50 (Human thrombin) is reported as < 100 nM and the IC50 (Human KLKB1 protein) is reported as 1000 to 10000 nM.
For `COCCn1ccc(-c2cc(NCc3ccc(Cl)s3)n(C(=O)c3ccoc3)n2)cc1=O` [Entry 17, 4-(5-[(5-chlorothiophen-2-yl)methyl]amino-1-(furan-3-carbonyl)-1H-pyrazol-3-yl)-1-(2-methoxyethyl)-1,2-dihydropyridin-2-one], the IC50 (Human thrombin) was < 100 nM and the IC50 (Human KLKB1 protein) was 1000 to 10000 nM.
In the case of `O=C(c1ccoc1)n1nc(-c2ccn(Cc3ccccn3)c(=O)c2)cc1NCc1ccc(Cl)s1` [Entry 18, 4-(5-[(5-chlorothiophen-2-yl)methyl]amino-1-(furan-3-carbonyl)-1H-pyrazol-3-yl)-1-(pyridin-2-ylmethyl)-1,2-dihydropyridin-2-one], the IC50 (Human thrombin) is reported as < 100 nM and the IC50 (Human KLKB1 protein) is reported as 100 to 1000 nM.
In the case of `O=C(c1ccoc1)n1nc(-c2ccn(Cc3cccnc3)c(=O)c2)cc1NCc1ccc(Cl)s1` [Entry 19, 4-(5-[(5-chlorothiophen-2-yl)methyl]amino-1-(furan-3-carbonyl)-1H-pyrazol-3-yl)-1-(pyridin-3-ylmethyl)-1,2-dihydropyridin-2-one], the IC50 (Human thrombin) is reported as < 100 nM and the IC50 (Human KLKB1 protein) is reported as < 100 nM.
`O=C(Cn1ccc(-c2cc(NCc3ccc(Cl)s3)n(C(=O)c3ccoc3)n2)cc1=O)N1CCOCC1` [Entry 20, 4-(5-[(5-chlorothiophen-2-yl)methyl]amino-1-(furan-3-carbonyl)-1H-pyrazol-3-yl)-1-[2-(morpholin-4-yl)-2-oxoethyl]-1,2-dihydropyridin-2-one] gave an IC50 (Human thrombin) of 100 to 1000 nM and an IC50 (Human KLKB1 protein) of 1000 to 10000 nM.
For `O=C(c1ccoc1)n1nc(-c2ccn(CCN3CCOCC3)c(=O)c2)cc1NCc1ccc(Cl)s1` [Entry 21, 4-(5-[(5-chlorothiophen-2-yl)methyl]amino-1-(furan-3-carbonyl)-1H-pyrazol-3-yl)-1-[2-(morpholin-4-yl)ethyl]-1,2-dihydropyridin-2-one], the IC50 (Human thrombin) was < 100 nM and the IC50 (Human KLKB1 protein) was 100 to 1000 nM.
With `O=C(c1ccsc1)n1nc(-c2cc[nH]c(=O)c2)cc1NCc1ccc(Cl)s1` [Entry 22, 4-(5-[(5-chlorothiophen-2-yl)methyl]amino-1-(thiophene-3-carbonyl)-1H-pyrazol-3-yl)-1,2-dihydropyridin-2-one] the IC50 (Human thrombin) was < 100 nM and the IC50 (Human KLKB1 protein) was 100 to 1000 nM.
With `COCCn1ccc(-c2cc(NCc3ccc(Cl)s3)n(C(=O)c3ccsc3)n2)cc1=O` [Entry 23, 4-(5-[(5-chlorothiophen-2-yl)methyl]amino-1-(thiophene-3-carbonyl)-1H-pyrazol-3-yl)-1-(2-methoxyethyl)-1,2-dihydropyridin-2-one] the IC50 (Human thrombin) was < 100 nM and the IC50 (Human KLKB1 protein) was 100 to 1000 nM.
With `O=C(c1ccsc1)n1nc(-c2ccn(Cc3ccccn3)c(=O)c2)cc1NCc1ccc(Cl)s1` [Entry 24, 4-(5-[(5-chlorothiophen-2-yl)methyl]amino-1-(thiophene-3-carbonyl)-1H-pyrazol-3-yl)-1-(pyridin-2-ylmethyl)-1,2-dihydropyridin-2-one] the IC50 (Human thrombin) was < 100 nM and the IC50 (Human KLKB1 protein) was < 100 nM.
`O=C(c1ccsc1)n1nc(-c2ccn(Cc3cccnc3)c(=O)c2)cc1NCc1ccc(Cl)s1` [Entry 25, 4-(5-[(5-chlorothiophen-2-yl)methyl]amino-1-(thiophene-3-carbonyl)-1H-pyrazol-3-yl)-1-(pyridin-3-ylmethyl)-1,2-dihydropyridin-2-one] was tested, and the IC50 (Human thrombin) was < 100 nM and the IC50 (Human KLKB1 protein) was < 100 nM.
`O=C(Cn1ccc(-c2cc(NCc3ccc(Cl)s3)n(C(=O)c3ccsc3)n2)cc1=O)N1CCOCC1` [Entry 26, 4-(5-[(5-chlorothiophen-2-yl)methyl]amino-1-(thiophene-3-carbonyl)-1H-pyrazol-3-yl)-1-[2-(morpholin-4-yl)-2-oxoethyl]-1,2-dihydropyridin-2-one] showed an IC50 (Human thrombin) of 100 to 1000 nM and an IC50 (Human KLKB1 protein) of 1000 to 10000 nM.
For `O=C(c1ccsc1)n1nc(-c2ccn(CCN3CCOCC3)c(=O)c2)cc1NCc1ccc(Cl)s1` [Entry 27, 4-(5-[(5-chlorothiophen-2-yl)methyl]amino-1-(thiophene-3-carbonyl)-1H-pyrazol-3-yl)-1-[2-(morpholin-4-yl)ethyl]-1,2-dihydropyridin-2-one], the IC50 (Human thrombin) was < 100 nM and the IC50 (Human KLKB1 protein) was 100 to 1000 nM.
For `O=C(c1ccsc1)n1nc(-c2cc(-c3ccccc3)[nH]c(=O)c2)cc1NCc1ccc(Cl)s1` [Entry 28, 4-(5-[(5-chlorothiophen-2-yl)methyl]amino-1-(thiophene-3-carbonyl)-1H-pyrazol-3-yl)-6-phenyl-1,2-dihydropyridin-2-one], the IC50 (Human thrombin) was > 100000 nM and the IC50 (Human KLKB1 protein) was > 100000 nM.
In the case of `O=c1cc(-c2cc(NCc3ccc(Cl)s3)[nH]n2)cc[nH]1` [Entry 29, 4-(5-[(5-chlorothiophen-2-yl)methyl]amino-1H-pyrazol-3-yl)-1,2-dihydropyridin-2-one], the IC50 (Human thrombin) is reported as > 100000 nM and the IC50 (Human KLKB1 protein) is reported as > 100000 nM.
In the case of `O=c1cc(-c2cc(NCc3ccc(Cl)s3)[nH]n2)ccn1Cc1cccnc1` [Entry 30, 4-(5-[(5-chlorothiophen-2-yl)methyl]amino-1H-pyrazol-3-yl)-1-(pyridin-3-ylmethyl)-1,2-dihydropyridin-2-one], the IC50 (Human thrombin) is reported as > 100000 nM and the IC50 (Human KLKB1 protein) is reported as > 100000 nM.
`CC(C)(C)C(=O)n1nc(-c2c[nH]c(=O)c(-c3ccccc3)c2)cc1NCc1ccc(Cl)s1` [Entry 35, 5-(5-[(5-chlorothiophen-2-yl)methyl]amino-1-(2,2-dimethylpropanoyl)-1H-pyrazol-3-yl)-3-phenyl-1,2-dihydropyridin-2-one] showed an IC50 (Human thrombin) of 1000 to 10000 nM and an IC50 (Human KLKB1 protein) of 10000 to 100000 nM.
For `O=C(c1ccsc1)n1nc(-c2ccc(=O)[nH]c2)cc1NCc1ccc(Cl)s1` [Entry 37, 5-(5-[(5-chlorothiophen-2-yl)methyl]amino-1-(thiophene-3-carbonyl)-1H-pyrazol-3-yl)-1,2-dihydropyridin-2-one], the IC50 (Human thrombin) was 100 to 1000 nM and the IC50 (Human KLKB1 protein) was 1000 to 10000 nM.
`O=c1ccc(-c2cc(NCc3ccc(Cl)s3)[nH]n2)c[nH]1` [Entry 38, 5-(5-[(5-chlorothiophen-2-yl)methyl]amino-1H-pyrazol-3-yl)-1,2-dihydropyridin-2-one] was tested, and the IC50 (Human thrombin) was > 100000 nM and the IC50 (Human KLKB1 protein) was > 100000 nM.
For `CC(C)(C)C(=O)n1nc(-c2cc(Br)c[nH]c2=O)cc1NCc1ccc(Cl)s1` [Entry 39, 5-bromo-3-(5-[(5-chlorothiophen-2-yl)methyl]amino-1-(2,2-dimethylpropanoyl)-1H-pyrazol-3-yl)-1,2-dihydropyridin-2-one], the IC50 (Human thrombin) was < 100 nM and the IC50 (Human KLKB1 protein) was 10000 to 100000 nM.
